These compounds were tested on Tetranychus urticae (assay: Acaricidal activity against Tetranychus urticae (two-spotted spider mite) in compound treated kidney bean leaf assessed as mortality of egg at 24 degC measured after 1 week). Settings: 168 h.
Type: functional

Row | Compound | LC50 [µM]
1 | Fc1cccc(F)c1C1=NC(c2ccccc2)CO1 (stereo not given) | 19.5
2 | CCCCCCCCCCCCc1ccc(C2COC(c3c(F)cccc3F)=N2)c(F)c1 (stereo not given) | 0.112
3 | CCCCCc1ccc(C2COC(c3c(F)cccc3F)=N2)c(OCCC)c1 (stereo not given) | 0.0129
4 | Cc1cccc(C2COC(c3c(F)cccc3F)=N2)c1 (stereo not given) | 182
5 | COc1cc(F)ccc1C1COC(c2c(F)cccc2F)=N1 (stereo not given) | 1.62
6 | CCCCCCCCc1ccc(C2COC(c3c(F)cccc3F)=N2)c(C)c1 (stereo not given) | 0.00129
7 | CCCCCCCCOc1ccc(C2COC(c3c(F)cccc3F)=N2)cc1 (stereo not given) | 0.00129
8 | CCCCCCCCCCCCc1ccc(C2COC(c3c(F)cccc3F)=N2)cc1 (stereo not given) | 0.00118
9 | CCCCCCCCc1ccc(C2COC(c3c(F)cccc3F)=N2)c(F)c1 (stereo not given) | 0.00129
10 | CC(C)(C)c1ccc(C2COC(c3c(F)cccc3F)=N2)cc1 (stereo not given) | 0.00159
11 | CCCCOc1cc(C(C)(C)C)ccc1C1COC(c2c(F)cccc2F)=N1 (stereo not given) | 0.129
12 | CC(C)Sc1ccc(C2COC(c3c(F)cccc3F)=N2)cc1 (stereo not given) | 1.51
13 | CCCCCc1ccc(C2COC(c3c(F)cccc3F)=N2)c(OCC)c1 (stereo not given) | 0.00135
14 | CCCCOc1cc(F)ccc1C1COC(c2c(F)cccc2F)=N1 (stereo not given) | 0.00145
15 | CC(C)Cc1ccc(C2COC(c3c(F)cccc3F)=N2)c(Cl)c1 (stereo not given) | 0.00145
16 | CCOc1ccccc1C1COC(c2c(F)cccc2F)=N1 (stereo not given) | 166
17 | Fc1cccc(F)c1C1=NC(c2ccc(Cl)cc2Cl)CO1 (stereo not given) | 0.151
18 | CC(C)c1ccc(C2COC(c3c(F)cccc3F)=N2)cc1 (stereo not given) | 0.0166
19 | Fc1ccc(C2COC(c3c(F)cccc3F)=N2)cc1F (stereo not given) | 1.7
20 | CCCCCCc1ccc(C2COC(c3c(F)cccc3F)=N2)cc1F (stereo not given) | 1.38
21 | CCOc1cc(F)ccc1C1COC(c2c(F)cccc2F)=N1 (stereo not given) | 0.0155
22 | CCCCCCCc1ccc(C2COC(c3c(F)cccc3F)=N2)c(F)c1 (stereo not given) | 0.00132
23 | Fc1ccc(C2COC(c3c(F)cccc3F)=N2)c(Cl)c1 (stereo not given) | 1.62

Row | Compound | LC50 [µM]
24 | COc1ccccc1C1COC(c2c(F)cccc2F)=N1 (stereo not given) | 174
25 | Fc1cccc(F)c1C1=NC(c2ccc(C(F)(F)F)cc2)CO1 (stereo not given) | 0.151
26 | CS(=O)(=O)c1ccc(C2COC(c3c(F)cccc3F)=N2)cc1 (stereo not given) | 1480
27 | CCCOc1cc(C(C)C)ccc1C1COC(c2c(F)cccc2F)=N1 (stereo not given) | 0.00138
28 | CCOc1cccc(C2COC(c3c(F)cccc3F)=N2)c1 (stereo not given) | 16.6
29 | Fc1ccc(C2COC(c3c(F)cccc3F)=N2)cc1Cl (stereo not given) | 1.62
30 | CCCCCCCCc1ccc(C2COC(c3c(F)cccc3F)=N2)c(OC)c1 (stereo not given) | 0.126
31 | CC(C)Cc1ccc(C2COC(c3c(F)cccc3F)=N2)cc1 (stereo not given) | 0.00159
32 | CCCCc1ccc(C2COC(c3c(F)cccc3F)=N2)cc1 (stereo not given) | 0.00159
33 | COc1cccc(C2COC(c3c(F)cccc3F)=N2)c1 (stereo not given) | 17.4
34 | CC(C)Oc1ccc(C2COC(c3c(F)cccc3F)=N2)cc1 (stereo not given) | 0.0158
35 | CCCCCCc1ccc(C2COC(c3c(F)cccc3F)=N2)c(F)c1 (stereo not given) | 0.00138
36 | C[S+]([O-])c1ccc(C2COC(c3c(F)cccc3F)=N2)cc1 (stereo not given) | 155
37 | CCOc1cc(C(C)(C)C)ccc1C1COC(c2c(F)cccc2F)=N1 (stereo not given) [ETOXAZOLE] | 0.0138
38 | Fc1ccc(C2COC(c3c(F)cccc3F)=N2)c(F)c1 (stereo not given) | 0.17
39 | COc1cc(C(C)(C)C)ccc1C1COC(c2c(F)cccc2F)=N1 (stereo not given) | 0.0144
40 | CCCCCCCCCCCCCCCc1ccc(C2COC(c3c(F)cccc3F)=N2)cc1 (stereo not given) | 0.0107
41 | Fc1cc(C2COC(c3c(F)cccc3F)=N2)ccc1Cl (stereo not given) | 0.162
42 | Fc1cccc(C2COC(c3c(F)cccc3F)=N2)c1 (stereo not given) | 18.2
43 | CCCCCCCCCCc1ccc(C2COC(c3c(F)cccc3F)=N2)c(Cl)c1 (stereo not given) | 1.15
44 | CCOc1ccc(C2COC(c3c(F)cccc3F)=N2)cc1 (stereo not given) | 0.0166
45 | Fc1cccc(F)c1C1=NC(c2ccc(Cl)cc2)CO1 (stereo not given) | 0.017
46 | Fc1cccc(F)c1C1=NC(c2ccc(OC(F)(F)F)cc2)CO1 (stereo not given) | 0.0144

Row | Compound | LC50 [µM]
47 | CCCCOc1ccc(C2COC(c3c(F)cccc3F)=N2)cc1 (stereo not given) | 0.00151
48 | Cc1ccccc1C1COC(c2c(F)cccc2F)=N1 (stereo not given) | 182
49 | CCCCCCc1ccc(C2COC(c3c(F)cccc3F)=N2)cc1Cl (stereo not given) | 1.32
50 | CCCCCCCCCCc1ccc(C2COC(c3c(F)cccc3F)=N2)c(F)c1 (stereo not given) | 0.012
51 | CCCCCCCCCCc1ccc(C2COC(c3c(F)cccc3F)=N2)cc1 (stereo not given) | 0.00126
52 | Cc1cc(Cl)ccc1C1COC(c2c(F)cccc2F)=N1 (stereo not given) | 1.62
53 | Cc1ccc(C2COC(c3c(F)cccc3F)=N2)cc1 (stereo not given) | 1.82
54 | Fc1ccccc1C1COC(c2c(F)cccc2F)=N1 (stereo not given) | 18.2
55 | Fc1cccc(F)c1C1=NC(c2ccc(Br)cc2)CO1 (stereo not given) | 0.0148
56 | Cc1ccc(C2COC(c3c(F)cccc3F)=N2)cc1C (stereo not given) | 17.4
57 | CCCCCCCCCCCCc1ccc(C2COC(c3c(F)cccc3F)=N2)c(Cl)c1 (stereo not given) | 1.07
58 | CCCCCCCCc1ccc(C2COC(c3c(F)cccc3F)=N2)cc1 (stereo not given) | 0.00135
59 | CCCCCCCCCCc1ccc(C2COC(c3c(F)cccc3F)=N2)c(OC)c1 (stereo not given) | 0.117
60 | Fc1cccc(F)c1C1=NC(c2ccc(Cl)c(Cl)c2)CO1 (stereo not given) | 1.51
61 | CCCCCCCCc1ccc(C2COC(c3c(F)cccc3F)=N2)c(Cl)c1 (stereo not given) | 0.00123
62 | CCc1cccc(C2COC(c3c(F)cccc3F)=N2)c1 (stereo not given) | 174
63 | Fc1ccc(C2COC(c3c(F)cccc3F)=N2)cc1 (stereo not given) | 1.82
64 | Oc1ccc(C2COC(c3c(F)cccc3F)=N2)cc1 (stereo not given) | 182
65 | CCCCCCCCCCCCCCOc1ccc(C2COC(c3c(F)cccc3F)=N2)cc1 (stereo not given) | 0.107
66 | CCCCCCc1ccc(C2COC(c3c(F)cccc3F)=N2)cc1 (stereo not given) | 0.00145
67 | CCCCCCOc1cc(C(C)(C)C)ccc1C1COC(c2c(F)cccc2F)=N1 (stereo not given) | 1.2
68 | CCCCCCCCCc1ccc(C2COC(c3c(F)cccc3F)=N2)c(OC)c1 (stereo not given) | 0.012
69 | CCOc1cc(Br)ccc1C1COC(c2c(F)cccc2F)=N1 (stereo not given) | 1.32

Row | Compound | LC50 [µM]
70 | CCCCCCc1ccc(C2COC(c3c(F)cccc3F)=N2)c(Cl)c1 (stereo not given) | 0.00132
71 | CCc1ccc(C2COC(c3c(F)cccc3F)=N2)cc1 (stereo not given) | 0.0174
72 | Fc1cccc(F)c1C1=NC(c2ccccc2Cl)CO1 (stereo not given) | 1.7
73 | Fc1cccc(F)c1C1=NC(c2ccc(OCC(F)(F)F)cc2)CO1 (stereo not given) | 0.00141
74 | CCc1ccc(C2COC(c3c(F)cccc3F)=N2)c(F)c1 (stereo not given) | 1.62
75 | CCc1ccc(C2COC(c3c(F)cccc3F)=N2)c(Cl)c1 (stereo not given) | 0.0155
76 | CSc1ccc(C2COC(c3c(F)cccc3F)=N2)cc1 (stereo not given) | 1.62
77 | CCCCCCCCCSc1ccc(C2COC(c3c(F)cccc3F)=N2)cc1 (stereo not given) | 0.12
78 | CN(C)c1ccc(C2COC(c3c(F)cccc3F)=N2)cc1 (stereo not given) | 166
79 | CCc1ccccc1C1COC(c2c(F)cccc2F)=N1 (stereo not given) | 17.4
80 | CCCCCCCCCCCCCOc1ccc(C2COC(c3c(F)cccc3F)=N2)cc1 (stereo not given) | 0.011
81 | CCCCCCCCCCOc1ccc(C2COC(c3c(F)cccc3F)=N2)cc1 (stereo not given) | 0.0012
82 | COc1cc(Cl)ccc1C1COC(c2c(F)cccc2F)=N1 (stereo not given) | 1.55
83 | CCCOc1cc(C(C)(C)C)ccc1C1COC(c2c(F)cccc2F)=N1 (stereo not given) | 0.0135
84 | CCOc1cc(C(C)C)ccc1C1COC(c2c(F)cccc2F)=N1 (stereo not given) | 0.145
85 | Fc1cc(Cl)ccc1C1COC(c2c(F)cccc2F)=N1 (stereo not given) | 0.00162
86 | COc1ccc(C2COC(c3c(F)cccc3F)=N2)cc1 (stereo not given) | 17.4
87 | CCOc1cc(Cl)ccc1C1COC(c2c(F)cccc2F)=N1 (stereo not given) | 1.48
88 | Cc1ccc(C2COC(c3c(F)cccc3F)=N2)c(C)c1 (stereo not given) | 174
89 | C[Si](C)(C)c1ccc(C2COC(c3c(F)cccc3F)=N2)cc1 (stereo not given) | 0.00151
90 | Fc1cccc(F)c1C1=NC(c2cccc(Cl)c2)CO1 (stereo not given) | 17
